# Experimental data as given in patent US20250019373A1, “ARYL OR HETEROARYL DERIVATIVE, AND PHARMACEUTICAL COMPOSITION COMPRISING SAME AS ACTIVE INGREDIENT FOR PREVENTION OR TREATMENT OF KINASE-RELATED DISEASES” (VORONOI INC., priority 2021, published 2025).
# Test system: HT-29 cells
# Test: Cell necrosis inhibitory activity under necroptosis-inducing conditions (TNF-α, Z-VAD-FMK, LCL161) in HT-29 cells, Cell Titer-Glo
# Type: cell-based
# Settings: Homo sapiens, 100 ng/mL TNF-α + 25 μM Z-VAD-FMK + Smac mimetic LCL161, 24 hours, cell viability
# Description: To evaluate the cell necrosis inhibitory activity of the compound according to the present invention, an experiment was conducted as follows.
# To evaluate the efficacy of inhibiting cell necrosis under TNF-α-mediated cell death-inducing conditions, a HT-29 cell line (Korean Cell Line Bank Accession No. #30038) was cultured in RPMI-1640 (HyClone #SH3027.01) medium containing 10% fetal bovine serum (FBS) and 1% penicillin/streptomycin to analyze cell viability. More specifically, for testing, the cell line was seeded in a 96-well flat bottom plate (Corning #3903) at a concentration of 10,000 cells/well and incubated at 37° C. under a 5% CO2 condition for 24 hours. Each well was treated with 100 ng/mL TNF-α, 25 μM pan-caspase inhibitor (Z-VAD-FMK, Selleckchem #S8102), and 10 µM Smac mimetic LCL161 (Selleckchem #S7009) and allowed to react for 10 minutes. The compounds of Examples were treated at 11 concentrations (the highest concentration being 0.1 μM or 1 μM) with a 3-fold concentration gradient, and as a control, dimethyl sulfoxide (DMSO) was treated at a concentration of 0.05% (v/v), which is the same as those when the compounds were treated. The treated cells were incubated for 24 hours. To confirm the degree of cell viability, 100 μL of Cell Titer-Glo (Promega #G7573) was added to the medium of the cultured cells and cultured for additional 10 minutes, and then luminescence was measured using a microplate reader. Based on the […] of control cells that were not treated with the compound, the degree of cell necrosis inhibitory activity was calculated according to the treatment concentration of each compound. Here, the concentration at which the cell necrosis inhibitory activity was 50% was determined as an EC50 (nM) value and calculated using Prism (ver. 8.4.3 #GraphPad) software.
row,Structure (SMILES),EC50 [nM]
1,"CNC(=O)c1n[nH]c2cc(-c3cc(NC(=O)N4OCC[C@H]4c4ccccc4)cnc3C)ccc12 [Example 18, (S)-N-(6-methyl-5-(3-(methylcarbamoyl)-1H-indazol-6-yl)pyridin-3-y1)-3-phenylisoxazolidine-2-carboxamide]",0.3
2,"CC(=O)Nc1nc2ccc(-c3cnc(C)c(NC(=O)N4OCC[C@H]4c4ccccc4)c3)cn2n1 [Example 35, (S)-N-(5-(2-acetamido-[1,2,4]triazolo[1,5-a]pyridin-6-yl)-2-methylpyridin-3-yl)-3-phenylisoxazolidine-2-carboxamide]",3.2
3,"Cc1ccc(-c2ccc3ncn(C)c3n2)cc1NC(=O)N1OCC[C@H]1c1ccccc1 [Example 143, (S)-N-(2-methyl-5-(3-methyl-3H-imidazo[4,5-b]pyridin-5-yl)phenyl)-3-phenylisoxazolidine-2-carboxamide]",5
4,"Cc1ccc(-c2ccc3ncc(C#CC(C)(C)O)n3c2)cc1NC(=O)N1OCC[C@H]1c1ccccc1 [Example 115, (S)-N-(5-(3-(3-hydroxy-3-methylbut-1-yn-1-yl)imidazo[1,2-a]pyridin-6-yl)-2-methylphenyl)-3-phenylisoxazolidine-2-carboxamide]",1.7
5,"Cc1ncc(-c2ccc3nc(N)nn3c2)cc1NC(=O)N1OCC[C@H]1c1cccc(C(F)(F)F)c1 [Example 41, (S)-N-(5-(2-amino-[1,2,4]triazolo[1,5-a]pyridin-6-yl)-2-methylpyridin-3-yl)-3-(3-(trifluoromethyl)phenyl)isoxazolidine-2-carboxamide]",1
6,"Cc1ncc(-c2ccn3nc(N)nc3c2)cc1NC(=O)N1OCC[C@H]1c1ccc(C#N)cc1 [Example 70, (S)-N-(5-(2-amino-[1,2,4]triazolo[1,5-a]pyridin-7-yl)-2-methylpyridin-3-yl)-3-(4-cyanophenyl)isoxazolidine-2-carboxamide]",5.2
7,"Cc1ccc(-c2ccc3nccn3c2)cc1NC(=O)N1OCC[C@H]1c1ccccc1 [Example 113, (S)-N-(5-(imidazo[1,2-a]pyridin-6-yl)-2-methylphenyl)-3-phenylisoxazolidine-2-carboxamide]",2.4
8,"Cc1ccc(-c2ccc3ncc(C#N)n3c2)cc1NC(=O)N1OCC[C@H]1c1ccccc1 [Example 114, (S)-N-(5-(3-cyanoimidazo[1,2-a]pyridin-6-yl)-2-methylphenyl)-3-phenylisoxazolidine-2-carboxamide]",1.9
9,"Cc1ncc(-c2ccc3nc(N)nn3c2)cc1NC(=O)N1OCC[C@H]1c1ccccc1 [Example 33, (S)-N-(5-(2-amino-[1,2,4]triazolo[1,5-a]pyridin-6-yl)-2-methylpyridin-3-yl)-3-phenylisoxazolidine-2-carboxamide]",1.2
10,"Cc1ncc(-c2ccc3c(N)ncnn23)cc1NC(=O)N1OCC[C@H]1c1ccccc1 [Example 120, (S)-N-(5-(4-aminopyrrolo[2,1-f][1,2,4]triazin-7-yl)-2-methylpyridin-3-yl)-3-phenylisoxazolidine-2-carboxamide]",1
11,"Nc1nc2cc(-c3ccc(F)c(NC(=O)N4OCC[C@H]4c4ccccc4)c3F)ccn2n1 [Example 134, (S)-N-(3-(2-amino-[1,2,4]triazolo[1,5-a]pyridin-7-yl)-2,6-difluorophenyl)-3-phenylisoxazolidine-2-carboxamide]",13
12,"COc1ncc(-c2ccc3nc(NC(=O)C4CC4)cn3n2)cc1NC(=O)N1OCC[C@H]1c1ccccc1 [Example 4, (S)-N-(5-(2-(cyclopropanecarboxamido)imidazo[1,2-b]pyridazin-6-yl)-2-methoxypyridin-3-yl)-3-phenylisoxazolidine-2-carboxamide]",0.2
13,"COc1ncc(-c2ccn3nc(N)nc3c2)cc1NC(=O)N1OCC[C@H]1c1ccccc1 [Example 47, (S)-N-(5-(2-amino-[1,2,4]triazolo[1,5-a]pyridin-7-yl)-2-methoxypyridin-3-yl)-3-phenylisoxazolidine-2-carboxamide]",0.5
14,"Nc1nc2ccc(-c3ccc(Cl)c(NC(=O)N4OCC[C@H]4c4ccccc4)c3F)cn2n1 [Example 105, (S)-N-(3-(2-amino-[1,2,4]triazolo[1,5-a]pyridin-6-yl)-6-chloro-2-fluorophenyl)-3-phenylisoxazolidine-2-carboxamide]",43.8
15,"CC(=O)Nc1cn2nc(-c3cnc(C)c(NC(=O)N4OCC[C@H]4c4ccccc4)c3)ccc2n1 [Example 11, (S)-N-(5-(2-acetamidoimidazo[1,2-b]pyridazin-6-yl)-2-methylpyridin-3-yl)-3-phenylisoxazolidine-2-carboxamide]",0.9
16,"Cc1ccc(-c2ccc3nc(N)c(C(=O)[C@@H]4C[C@@H]4F)n3c2)cc1NC(=O)N1OCC[C@H]1c1ccccc1 [Example 135, (S)-N-(5-(2-amino-3-((1S,2S)-2-fluorocyclopropane-1-carbonyl)imidazo[1,2-a]pyridin-6-yl)-2-methylphenyl)-3-phenylisoxazolidine-2-carboxamide]",0.2
17,"COc1cccc([C@@H]2CCON2C(=O)Nc2cc(-c3ccc4nc(N)nn4c3)cnc2C)c1 [Example 45, (S)-N-(5-(2-amino-[1,2,4]triazolo[1,5-a]pyridin-6-yl)-2-methylpyridin-3-yl)-3-(3-methoxyphenyl)isoxazolidine-2-carboxamide]",4.6
18,"Nc1nc2ccc(-c3ccc(F)c(NC(=O)N4OCC[C@H]4c4ccccc4)c3F)cc2s1 [Example 132, (S)-N-(3-(2-aminobenzo[d]thiazol-6-yl)-2,6-difluorophenyl)-3-phenylisoxazolidine-2-carboxamide]",8.1
19,"COc1ccc(-c2ccc3nc(N)nn3c2)cc1NC(=O)N1OCC[C@H]1c1ccccc1 [Example 31, (S)-N-(5-(2-amino-[1,2,4]triazolo[1,5-a]pyridin-6-yl)-2-methoxyphenyl)-3-phenylisoxazolidine-2-carboxamide]",4.6
20,"Cc1ncc(-c2ccc3nc(N)nn3c2)cc1NC(=O)N1OCC[C@H]1c1cc(F)cc(F)c1 [Example 38, (S)-N-(5-(2-amino-[1,2,4]triazolo[1,5-a]pyridin-6-yl)-2-methylpyridin-3-yl)-3-(3,5-difluorophenyl)isoxazolidine-2-carboxamide]",1.6
21,"Cc1ncc(-c2ccc3nc(N)nn3c2)cc1NC(=O)N1OCC[C@H]1c1ccc(Cl)cc1 [Example 69, (S)-N-(5-(2-amino-[1,2,4]triazolo[1,5-a]pyridin-6-yl)-2-methylpyridin-3-yl)-3-(4-chlorophenyl)isoxazolidine-2-carboxamide]",0.4
22,"Cc1ccc(-c2ccn3nc(N)nc3c2)cc1NC(=O)N1OCC[C@H]1c1cc(F)cc(F)c1 [Example 63, (S)-N-(5-(2-amino-[1,2,4]triazolo[1,5-a]pyridin-7-yl)-2-methylphenyl)-3-(3,5-difluorophenyl)isoxazolidine-2-carboxamide]",0.2
23,"COc1ncc(-c2ccc3nc(N)nn3c2)cc1NC(=O)N1OCC[C@H]1c1cc(F)cc(F)c1 [Example 57, (S)-N-(5-(2-amino-[1,2,4]triazolo[1,5-a]pyridin-6-yl)-2-methoxypyridin-3-yl)-3-(3,5-difluorophenyl)isoxazolidine-2-carboxamide]",4.4
24,"CC(=O)Nc1nc2cc(-c3cnc(C)c(NC(=O)N4OCC[C@H]4c4ccccc4)c3)ccn2n1 [Example 49, (S)-N-(5-(2-acetamido-[1,2,4]triazolo[1,5-a]pyridin-7-yl)-2-methylpyridin-3-yl)-3-phenylisoxazolidine-2-carboxamide]",1.3
25,"Cc1ncc(-c2ccc3nc(NC(=O)C4CC4)nn3c2)cc1NC(=O)N1OCC[C@H]1c1ccccc1 [Example 36, (S)-N-(5-(2-(cyclopropanecarboxamido)-[1,2,4]triazolo[1,5-a]pyridin-6-yl)-2-methylpyridin-3-yl)-3-phenylisoxazolidine-2-carboxamide]",0.6
26,"Cc1cc(F)c(-c2ccc3nc(N)nn3c2)cc1NC(=O)N1OCC[C@H]1c1ccccc1 [Example 34, (S)-N-(5-(2-amino-[1,2,4]triazolo[1,5-a]pyridin-6-yl)-4-fluoro-2-methylphenyl)-3-phenylisoxazolidine-2-carboxamide]",0.5
27,"Cc1ccc(-c2ccc3nnc(C)n3n2)cc1NC(=O)N1OCC[C@H]1c1ccccc1 [Example 107, (S)-N-(2-methyl-5-(3-methyl-[1,2,4]triazolo[4,3-b]pyridazin-6-yl)phenyl)-3-phenylisoxazolidine-2-carboxamide]",23.2
28,"COc1ncc(-c2csc3c(N)ncnc23)cc1NC(=O)N1OCC[C@H]1c1ccccc1 [Example 128, (S)-N-(5-(4-aminothieno[3,2-d]pyrimidine-7-yl)-2-methoxypyridin-3-yl)-3-phenylisoxazolidine-2-carboxamide]",38.2
29,"Cc1ccc(-c2csc3c(N)ncnc23)cc1NC(=O)N1OCC[C@H]1c1ccccc1 [Example 122, (S)-N-(5-(4-aminothieno[3,2-d]pyrimidine-7-yl)-2-methylphenyl)-3-phenylisoxazolidine-2-carboxamide]",20.4
